Measured values: patent US6620842B2, “Chalcones” (Indena SpA, priority 1999, dated 2003)

What was measured:
[1] = Cytotoxicity of the compounds alone against drug-resistant cancer cells; settings: human, MDA-435/LCC-MDR cells (drug-resistant cancer cells)
Description: (§1) The treatment consisted of concurrent exposure of MDA-435/LCC-MDR cells to paclitaxel in the presence or absence of the compounds reversing agent (1 μM) for 72 h in vitro. Assessment of cytotoxicity, i.e. cell growth inhibition, was determined according to the methods of Skehan, et al. as discussed in J. Nat.
(§2) Briefly, cells were plated between 400 and 1200 cells/well in 96 well plates and incubated at 37° C. for 15-18 h prior to drug addiction to allow attachment of cells. Compounds were solubilized in 100% DMSO and further diluted in RPMI-1640 containing 10 mM HEPES. After a 72 h incubation, 100 μl of ice-cold 50% TCA was added to each well and incubated for 1 h at 40° C. Plates were then washed 5 times with tap water to remove TCA, low-molecular weight metabolites and serum proteins. Suforhodamine B (SRB) (0.4%, 50 μl) was added to each well. Following a five minute incubation at room temperature, plates were rinsed 5 times with 0.1% acetic acid and air dried. Bound dye was solubilized with 10 mM Tris Base (pH 10.5) for 5 mm on a gyratory shaker. Optical density was measured at 570 nm.

[2] = tested on: drug-resistant cancer cells
Description: as §1, §2

[3] = tested on: drug-resistant breast cancer cells MDA-435/LCC6-MDR; assay: Cytostatic activity of paclitaxel alone or in combination with the compounds (SRB cell growth inhibition); assay type: cell-based; settings: IC50 of paclitaxel alone or in presence of compound (reversing agent, 1 μM), MDA-435/LCC6-MDR cells, 72 h
Description: The compounds were then evaluated in combination with paclitaxel for their cytostatic activity against the drug-resistant breast cancer cells MDA-435/LCC6-MDR.
In the experiments, the compounds were used in combination with paclitaxel, the paclitaxel being at a concentration of 0.3 μM.
Cancer Inst, 82, 1107, 1990.

| Compound | IC50 at 72 h [1] [µM] | other results |
| --- | --- | --- |
| COc1cc(C=CC(=O)c2c(OCC=C(C)C)ccc3c(=O)c4ccccc4oc23)cc(OC)c1OC [VIB 178, 1-[3-(3-Methylbut-2-Enyloxy)Xanthen-9-one-4-yl]-3-(3,4,5-Tri-Methoxyphenyl)-Propen-1-one] | > 1 | – |
| 1-[3-Methyl-7-(Prop-2-ynyloxy)flavon-8-yl]-Phenyl-Propen-1-one [VIB 167] | – | IC50 [2]: > 1 µM |
| CC(=O)O[C@H]1C(=O)[C@@]2(C)[C@H]([C@H](OC(=O)c3ccccc3)[C@]3(O)C[C@H](OC(=O)[C@H](O)[C@@H](NC(=O)c4ccccc4)c4ccccc4)C(C)=C1C3(C)C)[C@]1(OC(C)=O)CO[C@@H]1C[C@@H]2O [Paclitaxel, paclitaxel] | – | IC50 [3]: 426 nM |
| COc1cc(C=CC(=O)c2c(OCC=C(C)C)ccc3c(=O)c(C)c(-c4ccccc4)oc23)cc(OC)c1OC [VIB 173, 1-[3-Methyl-7-(3-Methylbut-2-Enyloxy)Flavon-8-yl]-3-(3,4,5-Tri-Methoxy)Phenyl-Propen-1-one] | > 1 | – |
